This is an account of results in US11744830B2, “Ameliorative agent for cytokine release syndrome and so on” (TORII PHARMACEUTICAL CO., LTD., priority 2018, dated 2023).

Experiment [1] deals with TNF-α production from CD14^+ cells. Nature of the experiment: LPS stimulation-induced TNF-α production in CD14^+ cells. As to conditions: for IC50: LPS 3 ng/mL, 3 days. Type of experiment: cell-based, human. On the procedure: (§1) Cryopreserved PBMCs were quickly thawed in a 37° C. thermostat and added to a tube containing medium. After centrifugation (at room temperature at 300 g for 10 minutes) to remove the supernatant, the cells were suspended again in the medium, followed by counting the number of viable cells. The cell suspension was centrifuged (at room temperature at 300 g for 10 minutes) to remove the supernatant, followed by addition of MACS Buffer to suspend the cells, to which Human CD14 MicroBeads were further added. After being allowed to stand on ice for 15 minutes, the cell suspension was diluted with MACS Buffer and centrifuged (at room temperature at 300 g for 10 minutes) to remove the supernatant.
(§2) MACS Buffer was added to the tube, and the cells were suspended and then applied to a separatory column to separate CD14^+ cells. The CD14^+ cell fraction was diluted with the medium and then centrifuged (at room temperature at 300 g for 10 minutes). The supernatant was removed and the cells were suspended in the medium (1 mL), followed by counting the number of viable cells. The cell suspension was adjusted with the medium to 2.4×10^5 or 3×10^5 cells/mL and seeded in a 96-well plate (2.4×10^4 cells/well), which was then allowed to stand in a CO2 incubator for 1 to 2 hours.
(§3) The culture supernatants collected in 1.2.2 were quantified for TNF-α using Human TNF-α DuoSet ELISA.

The subject of experiment [2] is OPN production from CD14^+ cells. Briefly: LPS stimulation-induced OPN production in CD14^+ cells. Type of experiment: cell-based, human. As to conditions: for IC50: Homo sapiens, 72 h, LPS 500 ng/mL, 3 days. On the procedure: as §1, with “supernatant. MACS Buffer was added to the tube, and the cells were suspended and then applied to a separatory column to separate CD14^+ cells. The CD14^+ cell fraction was diluted with the medium and then centrifuged (at room temperature at 300 g for 10 minutes). The supernatant was removed and the cells were suspended in the medium (1 mL), followed by counting the number of viable cells. The cell suspension was adjusted with the medium to 2.4×10^5 or 3×10^5 cells/mL and seeded in a 96-well plate (2.4×10^4 cells/well), which was then allowed to stand in a CO2 incubator for 1 to 2 hours.” for “supernatant.”
The collected culture supernatants were quantified for OPN using Human OPN DuoSet ELISA.

The test system of another experiment is IL-6 production. Briefly: CRS toxicity evaluation system using CAR-T cells: IL-6. Type of experiment: cell-based, human. As to conditions: for IC50: Homo sapiens, Monocyte, CAR-T cells, target cells and monocytes, 72 hours. On the procedure: (§4) The supernatants were collected at 72 hours after the initiation of culture, and various cytokines in each supernatant were measured by FACS multiplex assay.

In experiment [3] the test system is IL-6 production from CD14^+ cells. Nature of the experiment: LPS stimulation-induced IL-6 production in CD14^+ cells. In kind it is cell-based, human. As to conditions: for IC50: Homo sapiens, 72 h, CD14^+ cells, LPS 3 ng/mL, 3 days. On the procedure:
as §1, §2
The collected culture supernatants were quantified for IL-6 using Human IL-6 DuoSet ELISA.

Another experiment concerns IL-18 production. Briefly: CRS toxicity evaluation system using CAR-T cells: IL-18. Type of experiment: cell-based. As to conditions: Homo sapiens, Monocyte, target cells and monocytes, 72 hours, reference data because of low production. On the procedure:
as §4

The subject of experiment [4] is IFN-γ production in CD4^+ T cell-depleted PBMCs. Briefly: T-cell stimulation bead- and LPS stimulation-induced CRS toxicity evaluation system in CD4^+ T cell-depleted PBMCs: IFN-γ. As to conditions: Homo sapiens, 72 h, CD3/CD28 + LPS, 3 days. Type of experiment: cell-based. On the procedure:
Cryopreserved human PBMCs were quickly thawed in a 37° C. thermostat and added to a tube containing medium. After centrifugation (at room temperature at 300 g for 10 minutes) to remove the supernatant, the cells were suspended again in the medium (10 mL), followed by counting the number of viable cells. The remainder of the cell suspension was centrifuged (at room temperature at 300 g for 10 minutes) to remove the supernatant, followed by addition of MACS Buffer in a volume of 80 μL and Human CD4 MicroBeads in a volume of 20 μL per 1×10^7 cells to suspend the cells. After being allowed to stand on ice for 15 minutes, the cell suspension was diluted with MACS Buffer (2 mL) and centrifuged (at room temperature at 300 g for 10 minutes) to remove the supernatant. MACS Buffer (500 μL) was added to the tube, and the cells were suspended and then applied to a separatory column to separate CD4^− cells (a pass-through fraction of CD4^+ cells). The CD4^− cell fraction was diluted to 15 mL with the medium and then centrifuged (at room temperature at 300 g for 10 minutes) to remove the supernatant, and the cells were then suspended again in the medium (1 mL), followed by counting the number of viable cells. […]
The collected culture supernatants were quantified for IFN-γ and IL-6 using Human IFN-γ DuoSet ELISA and Human IL-6 DuoSet ELISA.

The test system of experiment [5] is TNF-α production in PBMCs. Briefly: LPS stimulation-induced TNF-α production in PBMCs. Type of experiment: cell-based. As to conditions: Homo sapiens, PBMC. On the procedure: Cryopreserved PBMCs were quickly thawed in a 37° C. thermostat and added to a tube containing medium. After centrifugation (at room temperature at 300 g for 10 minutes) to remove the supernatant, the cells were suspended again in the medium (10 mL), followed by counting the number of viable cells. After centrifugation (at room temperature at 300 g for 10 minutes) to remove the supernatant, the medium was added to suspend the cells at 1×10^6 cells/mL. This cell suspension was seeded in a 96-well plate in a volume of 100 μL/well (1×10^5 cells/well). […] The cells were cultured in a CO2 incubator for 3 days to collect the culture supernatants.
as §3

The test system of the next experiment is MCP-1 production. Briefly: CRS toxicity evaluation system using CAR-T cells: MCP-1. Type of experiment: cell-based, human. The settings on record: Homo sapiens, Monocyte; CAR-T cells, target cells and monocytes, 72 hours. On the procedure: as §4

Structures can show the parent of a compound that is named as a salt. Bounds are passed on as bounds.

Regarding `C[C@]12C=CC(=O)C=C1CC[C@@H]1[C@@H]2[C@@H](O)C[C@@]2(C)[C@H]1CC[C@]2(O)C(=O)CO` [PSL, Prednisolone], the half-maximal inhibitory concentration (IC50) in experiment [1] (Homo sapiens, 72 h) was 41.7 nM; in experiment [1] it was 42 nM; in experiment [2], over 30000 nM; in the experiment with IL-6 production, over 10000 nM; in experiment [3] it was 151 nM; in the experiment on IL-18 production it was over 100000 nM. Moreover, the IC50 is 42 nM in experiment [4], 73 nM in experiment [5] and 71800 nM in the experiment with MCP-1 production. Also, the “suppressive effect on OPN production” value in experiment [2] (LPS) is recorded as “no suppressive effect”. The “suppressive effect on IL-6 production” value in the experiment on IL-6 production (CRS toxicity evaluation system using CAR-T cells) is “no suppressive effect”.

In the case of `CCOC(=O)[C@H](Cc1ccccc1)NC(=O)c1cc(Cl)c(OCCN2CCN(C)CC2)c(Cl)c1O` [JTE-607, (−)-ethyl N-{3,5-dichloro-2-hydroxy-4-[2-(4-methylpiperazin-1-yl)ethoxy]benzoyl}-L-phenylalaninate dihydrochloride], the IC50 was over 300 nM in experiment [1] (Homo sapiens, 72 h); 132 nM in experiment [2]; 188 nM in the experiment on IL-6 production; 52.9 nM in experiment [3]; 871 nM in the experiment on IL-18 production; 80.9 nM in experiment [4]. The half-maximal inhibitory concentration (IC50) in experiment [5] was found to be 30.7 nM; in the experiment with MCP-1 production it was 37.6 nM. Also, in experiment [1] (LPS), the “suppressive effect on TNF-α production” value is recorded as “suppressive effect in a manner dependent on its concentration added”. For the same compound, in experiment [3] (CD14^+ cells (IL-6) / CD8^+ T cells (IFN-γ)), the “Ratio (IL-6/IFN-γ) of IC50 values” is reported as under 0.18.

For orientation: IC50 means the concentration at which inhibition is half-maximal.
